Consider one compound from patent US7906488B2, “Sphingolipids in treatment and prevention of steatosis and of steatosis or of hepatotoxicity and its sequelae” (Nederlandse Organisatie Voor …, priority 2004, dated 2011).

One series relates to APOE3*Leiden (E3L) mice. Briefly: High fat high cholesterol diet feeding for 16 weeks (Example 1). In kind it is in vivo. Here is the method:
Forty-five female heterozygous APOE3*Leiden […]) mice were fed a high fat and high cholesterol diet for four weeks (week -4 to 0). The mice were housed during the experiment in clean-conventional animal rooms (relative humidity 50-60%, temperature 21° C., light cycle 6 am to 6 pm). Mice were supplied with food and acidified tap water ad libitum. At week 0, the mice were randomized on the basis of plasma total triglyceride and cholesterol levels into a control group of fifteen mice and two treatment groups of fifteen mice. The groups were: • 1. high fat, high cholesterol diet only • 2. high fat, high cholesterol diet plus 0.7% (w/w) phytosphingosine • 3. high fat, 'high' cholesterol diet with a reduced cholesterol content, resulting in about the same plasma cholesterol level as was obtained in group 2. The treatment was continued for 16 weeks. During the treatment period, tail blood samples were obtained at week 0, 2, 4, 8, 12, and 16 to measure plasma cholesterol and triglyceride levels and to determine plasma lipoprotein composition. After sixteen weeks, mice were autopsied, liver weight was determined. Body weight and food consumption were determined every four weeks Dietary ingredients were provided by Hope Farms (Woerden, the Netherlands). For group 1 (high cholesterol), the hypercholesterolemic Western-type diet (W-diet) described by Nishina et al (J. Lipid Res. 1990; 31:859) was supplemented with cholesterol (0.5% w/w, final concentration) and with sodium cholate (0.05% w/w, final concentration). This powdered Western-type diet was mixed with 2% agar and freeze-dried as pellets. The diet for group 2 (treatment group) was prepared by the addition of 0.7% (w/w) phytosphingosine to the same powdered Western-type diet (i.e. also supplemented with cholesterol (0.5% w/w, final concentration) and sodium cholate (0.05% w/w, final concentration)). The supplemented diet mixture was mixed with 2% agar and freeze-dried as pellets. The diet W for group 3 (low cholesterol) contained 0.1% cholesterol, and 0.05% sodium cholate (w/w, final concentration). This powdered Western-type diet was mixed with 2% agar and freeze-dried as pellets. The diets were prepared every eight weeks, and stored in the dark at -20° C. Food was given ad libitum. Total cholesterol was measured using the kit Chol R1 from Roche. Total triglycerides were measured using the kit Triglycerides GPO-PAP from Roche. ALAT was measured by dry chemistry on a Reflotron (Roche).

In the next series the test system is apoE3*-Leiden mice. Description: Example 2 overview: high fat high cholesterol W-diet with 1% phytosphingosine, 4 weeks. Format: in vivo. Here is the method: The experiment as described in example 1 was repeated several times but using 1% phytosphingosine as a supplement to the W-diet. Each time, one group (control group, consisting of 6 or 12 apoE3*-Leiden mice) was fed the high fat high cholesterol W-diet. Another group (treatment group, consisting of 6 or 12 apoE3*-Leiden mice), was fed the same high fat high cholesterol W-diet diet supplemented with 1% phytosphingosine.
In all mice the following parameters were determined (after 4 hours of fasting) after a diet period of 4 weeks: plasma total cholesterol (PTC), plasma triglycerides (PTG), plasma free fatty acids (PFFA), liver total cholesterol (LTC), liver triglycerides (LTG), liver cholesteryl esters (LCE), serum amyloid A (SAA) (mg/ml), fibrinogen (in mg/ml), body weight (in g), liver weight (in g), heart weight (in g), ALAT (in U/L).

The mark [1] stands for this setting: week 16, 0.7% (w/w) phytosphingosine in high fat, high cholesterol diet.
Setting [2] is: week 16, 0.7% phytosphingosine, p<0.001.

`CCCCCCCCCCCCCC[C@@H](O)[C@@H](O)[C@@H](N)CO` [PS, phytosphingosine]: in the series with APOE3*Leiden (E3L) mice (0.7% phytosphingosine, 16 weeks), the “Body weight and food intake between the three groups” value is on record as “did not differ”. Further, in the series on APOE3*Leiden (E3L) mice (setting [1]), the “Final mean body weight” value was determined as 22.1 gram, the “Final mean liver weight” value was determined as 1.34 gram and the “Final mean plasma ALAT values” is 82 U/L. Besides, in the series with APOE3*Leiden (E3L) mice (setting [2]), the “ALAT compared with high cholesterol group” value is reported as “significantly lower” and the “Liver weight compared with high cholesterol group 1” value is recorded as “significantly lower”. Also, in the series with apoE3*-Leiden mice (1% PS in W-diet), the “Plasma lipid levels (total cholesterol, triglycerides and free fatty acids) vs control” value was “significantly decreased”. Further, the “Liver lipid levels vs control” value with apoE3*-Leiden mice (1% PS in diet W) is “significantly decreased”. For the same compound, the ALAT vs control entry in the series on apoE3*-Leiden mice (1% PS in the diet) was “significantly lowered”. In the series with apoE3*-Leiden mice (1% phytosphingosine in W-diet), the “Plasma level of fibrinogen vs control” value was “increased”. Further, in the series on apoE3*-Leiden mice (1% phytosphingosine in W-diet, 4 hours fasting), the “Levels of serum amyloid A (SAA) vs control” value was “significantly lower”.
